# Reference: patent publication US9457033B2, “Steroid alkaloids and uses thereof as antimicrobial agents against electron transport-deficient microbes and as potentiators for antimicrobial agents against pathogenic bacteria” (priority 2011, dated 2016)
# Where a name gives a salt, the structure may show the parent alone.
# Assays:
# Format in all cases: cell-based, Staphylococcus aureus
# S. aureus ATCC 29213 [1] = assay: MIC, microdilution in CAMHB 24 h, with or without tomatidine/compound; conditions: for MIC: Staphylococcus aureus; for Fold (−TO/+TO): tomatidine at 8 μg/ml
# [2] = test system: S. aureus SCV strain NewbouldΔhemB; assay: MIC of compounds against SCV; conditions: for MIC: Staphylococcus aureus, read-out: MIC of Cpd against SCV hemB; for MIC of Cpd against SCV hemB: provided in categories (strong ≦ 0.5; moderate 4-8; low > 8)
# S. aureus ATCC 29213 [3] = assay: Checkerboard assay, aminoglycoside and tomatidine; conditions: for MIC: Staphylococcus aureus, ATCC29213, checkerboard; for FIC index: aminoglycoside with tomatidine, tomatidine MIC considered 32 μg/ml, values overestimated; for Aminoglycoside MIC: checkerboard
# Protocol: This checkerboard protocol (Eliopoulos and Moellering, 1996) was conducted by a microdilution method similar to that use for standard MICs determination. In 96 wells plates, antibiotics were loaded at a 4× concentration (where X is the maximal tested concentration) in well A1 and at a 2× concentration in the others wells of the column 1. Antibiotics were serially diluted 1:1 from the column 2 to column 10. […] Wells A12, B12, […] are positive untreated controls whereas wells […] are negative non-inoculated controls. […] The FIC index was calculated as follow (Eliopoulos and Moellering, 1996): FIC […]/MICB, where A and B are MICs of compounds A and B in combination and where MICA and MICB are the MICs of compound A alone and of compound B alone, respectively, and FICA and FICB are the FICs of compound A and of compound B, respectively.
# [4] = ATCC29213, compound alone, read-out: MIC of Cpd against ATCC29213
# [5] = gentamicin with 8 μg/ml of Cpd, provided in categories of synergy (1-2 no or mild; 4-16 moderate or strong)
# [6] = ATCC29213, read-out: MIC of Cpd against ATCC29213
Compound,Fold (MIC of GEN alone/MIC of GEN with Cpd) (S. aureus ATCC 29213 [1]; [5]),MIC [2],MIC of Cpd against ATCC29213 (S. aureus ATCC 29213 [1]; compound alone),MIC of Cpd against SCV hemB [2],further results
"CC(N)[C@H]1CC[C@H]2[C@@H]3CC[C@H]4C[C@@H](O)CC[C@]4(C)[C@H]3CC[C@]12C (stereo partly drawn) [Compound 30a, pregnan-3β-ol-20-amine]",1-2 fold,> 8 µg/mL,–,–,MIC (S. aureus ATCC 29213 [1]; [4]): > 16 µg/mL
C[C@H](CN)CCC[C@@H](C)C1[C@@H](O)C[C@H]2[C@@H]3CC[C@H]4C[C@@H](O)CC[C@]4(C)[C@H]3CC[C@]12C (some centres unmarked) [Compound 26],4-16 fold,≤ 0.5 µg/mL,–,–,MIC (S. aureus ATCC 29213 [1]; [6]): > 16 µg/mL
pregnan-3β-ol-20-(aminobutyl)amine hydrochloride Salt [Compound 44],1-2 fold,–,>16 µg/mL,>8 µg/mL,–
"C[C@]12CC[C@H]3[C@@H](CCC4CC(O)CC[C@@]43C)[C@@H]1CC[C@@H]2C(=O)CN1CCNCC1.Cl (some centres unmarked) [Compound 50, 21-piperazinopregnanolone hydrochloride Salt]",1-2 fold,–,>16 µg/mL,>8 µg/mL,–
C[C@H]1CC[C@]2(NC1)O[C@H]1C[C@H]3[C@@H]4CC[C@H]5C[C@@H](O)CC[C@]5(C)[C@H]4CC[C@]3(C)[C@H]1[C@@H]2C [Tomatidine hydrochloride salt],4-16 fold,≤ 0.5 µg/mL,–,–,MIC (S. aureus ATCC 29213 [1]; [6]): > 16 µg/mL
pregnan-3β-ol-20-(aminopropyl)amine hydrochloride Salt [Compound 43],1-2 fold,–,>16 µg/mL,4 to 8 µg/mL,–
"C[C@]12CC[C@H](O)C[C@@H]1CC[C@@H]1[C@@H]2CC[C@]2(C)[C@@H](C(=O)CN3CCCCC3)CC[C@@H]12 [Compound 48, 21-piperidinopregnanolone]",1-2 fold,> 8 µg/mL,–,–,MIC (S. aureus ATCC 29213 [1]; [6]): > 16 µg/mL
"CNCC(=O)[C@H]1CC[C@H]2[C@@H]3CCC4CC(O)CC[C@]4(C)[C@H]3CC[C@]12C.Cl (some centres unmarked) [Compound 49, N-methyl-21-aminopregnanolone hydrochloride salt]",1-2 fold,–,>16 µg/mL,>8 µg/mL,–
"C[C@H]1CC[C@]2(NC1)O[C@H]1C[C@H]3[C@@H]4CC[C@H]5CC(=O)CC[C@]5(C)[C@H]4CC[C@]3(C)[C@H]1[C@@H]2C.Cl [Compound 25, 3-oxotomatidine hydrochloride Salt]",4-16 fold,–,>16 µg/mL,≦0.5 μg/ml,–
"CC(NCCCN(C)C)[C@H]1CC[C@H]2[C@@H]3CC[C@H]4C[C@@H](O)CC[C@]4(C)[C@H]3CC[C@]12C (stereo partly drawn) [Compound 32, pregnan-3β-ol-20-((N,N-dimethylamino)propyl)amine]",4-16 fold,> 8 µg/mL,–,–,MIC (S. aureus ATCC 29213 [1]; [4]): > 16 µg/mL
"CC(O)[C@H]1CC[C@H]2[C@@H]3CC[C@H]4C[C@@H](O)CC[C@]4(C)[C@H]3CC[C@]12C (stereo in doubt) [Compound 54, pregnane-3,20-diol]",1-2 fold,> 8 µg/mL,–,–,MIC (S. aureus ATCC 29213 [1]; [4]): > 16 µg/mL
"C[C@H]1CC[C@@]2(NC1)O[C@H]1C[C@H]3[C@@H]4CC[C@H]5C[C@H](O)CC[C@]5(C)[C@H]4CC[C@]3(C)[C@H]1[C@@H]2C.Cl [Compound 23, 3α-hydroxytomatidine hydrochloride Salt]",4-16 fold,–,>16 µg/mL,4 to 8 µg/mL,–
"[H]/N=C(/N)N[C@H]1[C@H](O)[C@@H](O)[C@H](O[C@@H]2O[C@@H](C)[C@](O)(C=O)[C@H]2O[C@@H]2O[C@@H](CO)[C@H](O)[C@@H](O)[C@@H]2NC)[C@@H](N/C(N)=N\[H])[C@@H]1O [Streptomycin, streptomycin]",–,–,–,–,"Fold (−TO/+TO) (S. aureus ATCC 29213 [1]; ATCC 29213): 4-8 fold; MIC (S. aureus ATCC 29213 [1]; ATCC29213, ATCC 29213, absence of tomatidine, read-out: MIC −TO): 4 to 8 µg/mL; MIC (S. aureus ATCC 29213 [1]; ATCC29213, ATCC 29213, presence of tomatidine at 8 μg/ml, read-out: MIC +TO): 1 µg/mL; MIC (S. aureus ATCC 29213 [3]; tomatidine 0 μg/ml): 4 to 8 µg/mL; MIC (S. aureus ATCC 29213 [3]; tomatidine 0.06 μg/ml): 4 µg/mL; MIC (S. aureus ATCC 29213 [3]; tomatidine 0.12 μg/ml): 2 µg/mL; MIC (S. aureus ATCC 29213 [3]; tomatidine 0.25 μg/ml): 1 to 2 µg/mL; MIC (S. aureus ATCC 29213 [3]; tomatidine 0.5 μg/ml): 1 µg/mL; MIC (S. aureus ATCC 29213 [3]; tomatidine 1 μg/ml): 1 µg/mL; MIC (S. aureus ATCC 29213 [3]; tomatidine 2 μg/ml): 1 µg/mL; MIC (S. aureus ATCC 29213 [3]; tomatidine 4 μg/ml): 1 µg/mL; MIC (S. aureus ATCC 29213 [3]; tomatidine 8 μg/ml): 1 µg/mL; FIC index (S. aureus ATCC 29213 [3]): ≦0.199"
"C[C@H]1CC[C@@]2(O[C@H]3C[C@H]4[C@@H]5CC[C@H]6C[C@@H](O)CC[C@]6(C)[C@H]5CC[C@]4(C)[C@H]3[C@@H]2C)N(C=O)C1 [Compound 21, N-formyl tomatidine]",1-2 fold,–,>16 µg/mL,>8 µg/mL,–
"C[C@H]1CC[C@]2(NC1)O[C@@]1(C)C[C@@]3(C)[C@@H]4CC[C@@]5(C)C[C@@H](O)CC[C@]5(C)[C@@]4(C)CC[C@]3(C)[C@@]1(C)[C@@H]2C.O=C(O)CC(O)(CC(=O)O)C(=O)O [Compound 58, tomatidine citrate]",4-16 fold,≤ 0.5 µg/mL,–,–,MIC (S. aureus ATCC 29213 [1]; [6]): > 16 µg/mL
"CN(C)CC(=O)[C@H]1CC[C@H]2[C@@H]3CC[C@H]4C[C@@H](O)CC[C@]4(C)[C@H]3CC[C@]12C [Compound 47, N,N-dimethyl-21-aminopregnanolone]",1-2 fold,> 8 µg/mL,–,–,MIC (S. aureus ATCC 29213 [1]; [6]): > 16 µg/mL
pregnan-3β-ol-20-(aminoethyl)amine hydrochloride Salt [Compound 42],1-2 fold,–,>16 µg/mL,4 to 8 µg/mL,–
"NCC[C@H](O)C(=O)N[C@@H]1C[C@H](N)[C@@H](O[C@H]2O[C@H](CN)[C@@H](O)[C@H](O)[C@H]2O)[C@H](O)[C@H]1O[C@H]1O[C@H](CO)[C@@H](O)[C@H](N)[C@H]1O [Amikacin, amikacin]",–,–,–,–,"MIC −TO (S. aureus ATCC 29213 [1]; ATCC 29213, absence of tomatidine): 2 µg/mL; MIC +TO (S. aureus ATCC 29213 [1]; ATCC 29213, presence of tomatidine at 8 μg/ml): 0.5 µg/mL; Fold (−TO/+TO) (S. aureus ATCC 29213 [1]; ATCC 29213): 4 fold; FIC index (S. aureus ATCC 29213 [3]): ≦0.133; Aminoglycoside MIC (S. aureus ATCC 29213 [3]; tomatidine 0 μg/ml): 2 µg/mL; Aminoglycoside MIC (S. aureus ATCC 29213 [3]; tomatidine 0.06 μg/ml): 2 µg/mL; Aminoglycoside MIC (S. aureus ATCC 29213 [3]; tomatidine 0.12 μg/ml): 0.5 µg/mL; Aminoglycoside MIC (S. aureus ATCC 29213 [3]; tomatidine 0.25 μg/ml): 0.25 µg/mL; Aminoglycoside MIC (S. aureus ATCC 29213 [3]; tomatidine 0.5 μg/ml): 0.25 to 0.5 µg/mL; Aminoglycoside MIC (S. aureus ATCC 29213 [3]; tomatidine 1 μg/ml): 0.25 to 1 µg/mL; Aminoglycoside MIC (S. aureus ATCC 29213 [3]; tomatidine 2 μg/ml): 0.25 to 1 µg/mL; Aminoglycoside MIC (S. aureus ATCC 29213 [3]; tomatidine 4 μg/ml): 0.25 µg/mL; Aminoglycoside MIC (S. aureus ATCC 29213 [3]; tomatidine 8 μg/ml): 0.5 µg/mL"
"CC(=O)[C@H]1CC[C@H]2[C@@H]3CC[C@H]4C[C@@H](O)CC[C@]4(C)[C@H]3CC[C@]12C [Compound 28, Pregnanolone]",1-2 fold,> 8 µg/mL,–,–,MIC (S. aureus ATCC 29213 [1]; [6]): > 16 µg/mL
"C=CCOC1CCC2(C)C(CCC3C2CCC2(C)C3CC3OC4(CCC(C)CN4)C(C)C32)C1.Cl (centres unmarked) [Compound 56, O-allyltomatidine hydrochloride Salt]",–,–,8 to 16 µg/mL,≦0.5 μg/ml,"Fold (MIC of GEN alone/MIC of GEN with Cpd) (S. aureus ATCC 29213 [1]; gentamicin with Compound 56 used at 4 μg/ml, categories of synergy): 4-16 fold"
Solasodan,1-2 fold,–,>16 µg/mL,>8 µg/mL,–
"CS(=O)(=O)O.C[C@H]1CC[C@]2(NC1)O[C@H]1C[C@H]3[C@@H]4CC[C@H]5C[C@@H](O)CC[C@]5(C)[C@H]4CC[C@]3(C)[C@H]1[C@@H]2C [Compound 57, tomatidine methanesulfonate]",4-16 fold,–,>16 µg/mL,≦0.5 μg/ml,–
